Values joined by “and” are separate entries in the source; they are usually repeats but may differ in a detail not shown here. Identical values can stand only once. Like-named read-outs stand apart in the source and are kept apart here.

In general, Kd refers to the free concentration of one partner at which half of the binding sites on the other are occupied at equilibrium, for simple one-to-one binding. As usually defined, the Ki is the dissociation constant of the complex between target and ligand, obtained from inhibition or displacement.

The target in series [1] is T1, MTAP (Homo sapiens, UniProt Q13126).
T1 sequence (Q13126 1-283): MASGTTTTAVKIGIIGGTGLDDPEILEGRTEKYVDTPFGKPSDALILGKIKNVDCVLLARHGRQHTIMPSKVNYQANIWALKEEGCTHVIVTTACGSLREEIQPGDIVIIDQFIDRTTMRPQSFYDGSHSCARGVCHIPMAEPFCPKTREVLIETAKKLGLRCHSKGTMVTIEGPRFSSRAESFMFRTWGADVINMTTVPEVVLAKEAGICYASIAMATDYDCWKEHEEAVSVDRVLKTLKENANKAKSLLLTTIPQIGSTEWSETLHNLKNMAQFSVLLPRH
The series can be described thus: Isothermal titration calorimetry of ligand binding to human MTAP. As to conditions: for ΔG: calculated from Ki; for −TΔS: from ΔG=ΔH−TΔS.

The target of series [2] is T1, MTAP. As to conditions: cited from earlier work; for Ki: human MTAP.
The next series relates to Cal27. As to conditions: Cal27 cells; cited from earlier work.
For series [3] the following is noted: in vivo; cited from earlier work.
The subject of series [4] is human lung cancer cell lines. As to conditions: mouse xenografts; cited from earlier work.
The subject of the next series is FaDu. As to conditions: FaDu cells; cited from earlier work.
In the next series the test system is FaDu tumors. As to conditions: mouse model; cited from earlier work.
Series [5] concerns the target T1, MTAP. The series can be described thus: Analytical ultracentrifugation sedimentation velocity of MTAP complexes. As to conditions: for S(20,w) (normalized): MTAP 134 μM + inhibitor 400 μM, normalized for mass of bound ligands; for S(20,w) relative change: versus apo MTAP.
Where [6] appears, read: second generation inhibitors, single set of identical sites.
[7] abbreviates: second generation inhibitors, identical sites.
Setting [8] is: first generation inhibitors, major binding sites (first two sites).
The mark [9] stands for this setting: first generation inhibitors, major binding sites.
[10] abbreviates: first generation inhibitors, third site.

In the case of `Nc1ncnc2[nH]cnc12` [Adenine, reference compound], on MTAP [1] (Kd, adenine, 1st site, three sequential binding sites model, derived from ITC data fitting), the Kd came to 3000 ± 1000 nM. For the same molecule, the ΔH was -0.003 ± 0.2 kcal/mol at MTAP [1] (adenine, 1st site); 2.4 ± 0.2 kcal/mol at MTAP [1] (adenine, 2nd site); -2.6 ± 0.8 kcal/mol on MTAP [1] (adenine, 3rd site). In addition, the “n (number of sites)” value on MTAP [1] (adenine, 1st site, sequential model) is reported as 1; at MTAP [1] (adenine, 2nd site, sequential model), 1; on MTAP [1] (adenine, 3rd site, sequential model) it was 1. Also, the ΔG was -7.6 ± 0.2 kcal/mol at MTAP [1] (adenine, 1st site); -7.7 ± 0.2 kcal/mol on MTAP [1] (adenine, 2nd site); -5.6 ± 0.5 kcal/mol at MTAP [1] (adenine, 3rd site). For the same molecule, the “−TΔS” value was -7.6 ± 0.3 kcal/mol at MTAP [1] (adenine, 1st site); -10.1 ± 0.3 kcal/mol on MTAP [1] (adenine, 2nd site); -3.0 ± 0.9 kcal/mol on MTAP [1] (adenine, 3rd site). Also, the “Entropy (−TΔS) share of the binding energy” value at MTAP [1] (adenine, third site) turned out to be 54%.
With `CSC[C@H]1CN(Cc2c[nH]c3c(N)ncnc23)C[C@@H]1O` [MT-DADMe-ImmA], the Ki on MTAP [2] (read-out: Ki (dissociation constant by inhibition kinetics)) is 0.09 nM. The Kd on MTAP [2] (setting [6]) is 0.09 ± 0.01 nM. Further, at MTAP [1] (setting [7]), the ΔH turned out to be 1.5 ± 0.1 kcal/mol; the ΔG is -13.7 kcal/mol and -13.7 ± 0.1 kcal/mol; the “−TΔS” value was -15.2 kcal/mol and -15.2 ± 0.1 kcal/mol. Also, the “n (number of sites)” value on MTAP [1] (setting [6]) is 3. Moreover, in the series on Cal27, the apoptosis entry was “induces apoptosis”. Moreover, the systemic toxicity entry in series [3] is reported as “low systemic toxicity”. Besides, the “tumor growth and metastases” value in series [4] was “inhibits the tumor growth and metastases”. Also, in the series with FaDu, the apoptosis entry was “induces apoptosis”. The tumor growth result with FaDu tumors is “prevents the growth of FaDu tumors”. For the same molecule, on MTAP [5], the “S(20,w) (normalized)” value is recorded as 5.904 ± 0.016 and the “S(20,w) relative change” value is on record as 0.79 ± 0.05%.
With `CSCC1NC(c2c[nH]c3c(N)ncnc23)[C@@H](O)[C@H]1O` (some centres unmarked) [MT-ImmA], the Kd at MTAP [2] (setting [8]) was 1 ± 0.1 nM. Moreover, the inhibition constant (Ki) on MTAP [2] was 1 nM. Also, at MTAP [1] (setting [9]), the “n (number of sites)” value is on record as 2.42 ± 0.04; the ΔH was 0.2 kcal/mol and 0.24 ± 0.04 kcal/mol; the ΔG is -12.3 kcal/mol and -12.3 ± 0.1 kcal/mol; the “−TΔS” value was -12.5 kcal/mol and -12.5 ± 0.1 kcal/mol. At MTAP [1] (setting [10]), the “n (number of sites)” value worked out at 0.58 ± 0.09, the ΔH came to 2.7 ± 0.4 kcal/mol, the ΔG is -8.4 ± 0.3 kcal/mol and the “−TΔS” value is -11.1 ± 0.5 kcal/mol.
Take `CCCSC[C@H]1N[C@@H](c2c[nH]c3c(N)ncnc23)[C@H](O)[C@@H]1O` [nPrT-ImmA]: the Kd on MTAP [2] (setting [8]) was 0.214 ± 0.01 nM. For the same molecule, on MTAP [1] (setting [9]), the “n (number of sites)” value turned out to be 2.13 ± 0.04; the ΔH is 0.2 kcal/mol and 0.24 ± 0.03 kcal/mol; the ΔG was -13.2 kcal/mol and -13.2 ± 0.03 kcal/mol; the “−TΔS” value is -13.4 kcal/mol and -13.4 ± 0.1 kcal/mol. In addition, at MTAP [1] (setting [10]), the “n (number of sites)” value was 0.9 ± 0.1, the ΔH is recorded as 1.1 ± 0.2 kcal/mol, the ΔG is -8.2 ± 0.4 kcal/mol and the “−TΔS” value was -9.3 ± 0.4 kcal/mol.
As for `Nc1ncnc2c(CN3CC(CSc4ccc(Cl)cc4)[C@H](O)C3)c[nH]c12` (some centres unmarked) [p-Cl-PhT-DADMe-ImmA], the Kd on MTAP [2] (setting [6]) was 0.01 ± 0.005 nM. In addition, on MTAP [1] (setting [7]), the ΔH is 2.6 ± 0.1 kcal/mol; the ΔG is -15.0 kcal/mol and -15.0 ± 0.3 kcal/mol; the “−TΔS” value is -17.6 kcal/mol and -17.6 ± 0.3 kcal/mol. Further, at MTAP [1] (setting [6]), the “n (number of sites)” value is given as 3. In addition, at MTAP [5], the “S(20,w) (normalized)” value turned out to be 6.012 ± 0.067; the “S(20,w) relative change” value is 2.63% and 2.63 ± 0.12%.

Values taken from PMC3222737 (Biochemistry, 2011).
